Laboratory results from patent US7691883B2, “Cinnamoyl compound and use of the same” (Sumitomo Chemical Company, Limited, priority 2003, dated 2010).

Key:
[1] = test system: mRNA of Type I collagen gene in renal glomerulus; experiment: Improvement of chronic renal failure: mRNA of Type I collagen gene in renal glomerulus of anti-Thy-1 antibody rats; assay type: in vivo, rat; design: key to mRNA of collagen gene: Type I collagen amount / GAPDH amount; conditions: for ability to improve chronic renal failure: anti-Thy-1 antibody rats, 15 mg/kg/day orally for 7 days; for mRNA of collagen gene: male Wistar rats given anti-Thy-1 antibody (IgG) i.v., compound orally 15 mg/kg/day for 7 days, Type I collagen amount/GAPDH amount, renal cortex, control group 5.6, normal group 1.7
Protocol: IgG was purified from an ascites-lyophilized powder (CEDARLANE, lot No. 05122) containing an anti-rat CD90 (Thy1.1) monoclonal antibody using MAbTrap kit (Amersham Biosciences, catalogue No. 17-1128-01).
6 ml of a binding buffer was added to 3 ml of ascites to sufficiently recover it, and this was passed through a 0.22 μm filter. The resulting solution was applied to a pre-bufferized column, and the column was then washed with 10 ml of a binding buffer. Thereafter, the column was eluted with 5 ml of an elution buffer. From washing, each 1 ml was fractionated, and the protein concentration of each fraction was measured using bovine serum albumin as a standard. A single peak was confirmed from an elution pattern, and an IgG fraction was dialyzed against a physiological saline overnight at 4° C. The protein concentration of the resulting anti-Thy-1 antibody (IgG) was calculated.
The present compounds represented by the compound numbers (1a), (4a), (9a), (14a), (21a), (33a), (19b) or (21d) (hereinafter, referred to as the present compound (1a), (4a), (9a), (14a), (21a), (33a), (19b) or the present compound (21d), respectively) and a corn oil which is a medium were weighed. These were mixed using a mortar and a pestle to prepare a […]. Using four 7-week old male Wistar rats [Nippon Charles River] per group, 60 μg/ml of the anti-Thy-1 antibody (IgG) or a physiological saline was intravenously injected via a tail vein at 5 ml/kg. Immediately after administration of the anti-Thy-1 antibody (IgG) or a physiological saline, the present compound or a corn oil was repeatedly orally administered for 7 days at 5 ml/kg. A dose of the present compound was 15 mg/kg/day.
On the next day of final administration, a rat reared as described in the above (2) was slaughtered by collection of whole blood, and kidneys were isolated. A whole RNA was separated from the cortex of the isolated kidney using RNeasy Mini Kit (QIAGEN, catalogue No. 74106). To 5 μl (50 ng) of the separated whole RNA were added 1 μl of 20 μM oligo dT and 4 μl of RNase-free distilled water. After the mixture was incubated at 65° C. for 5 minutes, it was immediately ice-cooled. To 10 μl of the solution were added 4 μl of 5× buffer, 2.4 μl of MgCl2, 1 μl of 10 mM dNTP, 1 μl of RNasin, 1 μl of Improm II and 0.6 μl of RNase-free distilled water (all available from Promega), and a reverse transcription reaction was performed under the condition of at 25° C. for 5 minutes, at 42° C. for 1 hour, and at 70° C. for 15 minutes.
Into 5 μl of the reverse transcription reaction solution were mixed each 2 μl of each 1.25 pmol/μl of primers represented by SEQ ID NOS: 3 and 4, 1.25 μl of a probe (FAM-ctcgccttca tgcgcctgct agc-TAMRA) for detecting DNA of a Type I collagen gene represented by SEQ ID No:5, each 0.25 μl of Rodent GAPDH primers, 0.25 μl of a Rodent GAPDH probe, 12.5 μl of TaqMan Universal PCR Master Mix (all available from Applied Biosystem) and 1.5 μl of sterilized water in a well of Optical 96-Well Reaction Plate (Applied Biosystem, catalogue No. N801-0560). As a standard, in place of 5 μl of the reverse transcription reaction solution, each 5 μl of 500, 250, 125, 62.5, 31.25, 15.625 ng/μl rat renal cortex cDNA which had been prepared in advance was used. Thereafter, using Gene Amp 7900 (Applied Biosystem), PCR was performed under the condition of at 50° C. for 5 minutes, and 40 cycles in which one cycle is at 95° C. for 15 seconds and at 60° C. for 1 minute. For quantization, a standard straight line was made, the Type I collagen and GAPDH amounts of each sample were calculated, and the transcription amount was calculated according to the following equation: Type I collagen transcription amount=Type I collagen amount/GAPDH amount
For statistical treatment of the resulting result, F-test of a variance ratio was performed between two groups of the anti-Thy-1 antibody and corn oil-administered groups and other each group. […]

[2] = Ability of a test compound to regulate transcription of a Type I collagen gene using the expression level of a reporter gene (COL-Luc luciferase) as an index; assay type: cell-based; conditions: final concentration 1 μM; normal human fetal skin fibroblast transfected with COL-Luc; TGF-β, 40 hours; read-out: inhibition percentage (inhibitory effect on the ability of TGF-β to promote transcription of a Type I collagen gene)
Protocol: 1×10^8 cells of a normal human fetal skin fibroblast (Clontech, catalogue No. CC-2509) were cultured at 37° C. overnight under 5% CO2 atmosphere. After the cultured cells were washed with a sodium phosphate buffer (hereinafter, referred to as PBS) twice, 3 ml of PBS was added thereto and the cells were scraped away the wall of a vessel using a cell scraper (Nalgen, catalogue No. 179693). The scraped cells were collected by centrifugation (1,500 rpm, 4° C., 15 min), and these were suspended in 20 ml of PBS and centrifuged again. To the resulting precipitates were added 11 ml of Solution 2 and 4.8 μl of pronase of DNA Extraction Kit (Stratagene, catalogue No. 200600). After shaken at 60° C. for 1 hour, the resulting mixture was allowed to stand in ice for 10 minutes. Then, 4 ml of Solution 3 of the kit was added to the mixture. After mixed, the mixture was allowed to stand in ice for 5 minutes and then centrifuged (3,000 rpm, 4° C., 15 min) to recover a supernatant. To the recovered supernatant was added 2 μl of RNase per 1 ml of the supernatant and the mixture was allowed to stand at 37° C. for 15 minutes. To the mixture was added 2-fold volume of ethanol. After mixed, a white thread-like substance (genomic DNA) appeared and the substance was recovered. The recovered genomic DNA washed with 70% ethanol and then air-dried. The air-dried genomic DNA was dissolved in 500 μl of 10 mM Tris-HCl, 1 mM EDTA (pH 8.0) (hereinafter, referred to as TE).
The resulting genomic DNA solution (the amount equivalent to 1 μg of genomic DNA), each 1 μl (10 pmol/μl) of an oligonucleotide consisting of the nucleotide sequence represented by SEQ ID No:1 and an oligonucleotide consisting of the nucleotide sequence represented by SEQ ID No:2, 29 μL of distilled water, 5 μl of the buffer attached to TaKaRa LA Taq (TAKARA SHUZO, catalogue No. RR002A), 5 μL of a Mg^2+ solution, 5 μL of a dNTP mixture and 0.5 μl of TaKaRa LA Taq (TAKARA SHUZO, catalogue No. RR002A) were mixed. After the resulting mixed solution was incubated at 94° C. for 5 minutes, the mixed solution was subjected to 30 cycles, in which one cycle consists of incubation at 94° C. for 1 minute, at 60° C. for 1 minute and then at 72° C. for 1 minute. The mixed solution was electrophoresed on a 2% agarose gel to recover about 0.5 kb of a DNA. The recovered DNA was treated with phenol/chloroform and then precipitated with ethanol to recover the DNA. The resulting DNA was dissolved in ultrapure water. To this solution were added 2.5 μl of NheI and 2.5 μl of HindIII, and then incubated at 37° C. for 3 hours. Then, the solution was electrophoresed on a 2% agarose gel to recover about 3.5 kb of a DNA. The recovered DNA was precipitated with ethanol to recover again the DNA (hereinafter, referred to as the collagen promoter DNA).
On the other hand, the vector pGL3 (Promega, catalogue No. E1751) having the nucleotide sequence encoding firefly luciferase was digested with NheI and HindIII, and then subjected to agarose gel electrophoresis as described above to recover about 5 kb of a DNA. The recovered DNA was precipitated with ethanol to recover the DNA again. To the recovered DNA were added 44 μl of distilled water, 5 μl of Buffer attached to Alkaline Phosphatase (TAKARA SHUZO, catalogue No. 2120A) and 1 μl of Alkaline Phosphatase (TAKARA SHUZO, catalogue No. 2120A). The mixed solution was incubated at 65° C. for 30 minutes. Then, the mixed solution was treated with phenol/chloroform twice, and precipitated with ethanol to recover the DNA (hereinafter referred to as the Luc vector DNA). Then, after about 20 ng of the collagen promoter DNA and about 20 ng of the Luc vector DNA were mixed, the same amount of a DNA Ligation kit Ver2 enzyme solution was added and this was incubated overnight at 16° C. To the mixed solution was added Escherichia coli 5Hdα (TOYOBO, catalogue No. DNA-903), this was allowed to stand in ice for 30 minutes, and then incubated at 42° C. for 45 seconds. […]

C=CCOc1cccc(C=CC(=O)c2c(O)cc(C)oc2=O)c1 [(4a), 4-hydroxy-3-[3-(3-allyloxyphenyl)-1-oxo-2-propenyl]-6-methyl-2H-pyran-2-one]
ability to improve chronic renal failure [1]: have the ability to improve chronic renal failure
mRNA of collagen gene [1]: 3.2
inhibition at 1 µM [2]: ≥ 70%

C#CCOc1ccc(C=CC(=O)c2c(O)cc(C)oc2=O)cc1 [(9a), 4-hydroxy-3-[3-(4-propargyloxyphenyl)-1-oxo-2-propenyl]-6-methyl-2H-pyran-2-one]
ability to improve chronic renal failure [1]: have the ability to improve chronic renal failure
mRNA of collagen gene [1]: 3.4

COC(=O)CNC(=O)c1cccc(C=CC(=O)c2c(N3CCOCC3)cc(C)oc2=O)c1 [(19b), 4-morpholino-3-[3-[3-[[(methoxycarbonylmethyl)amino]carbonyl]phenyl]-1-oxo-2-propenyl]-6-methyl-2H-pyran-2-one]
ability to improve chronic renal failure [1]: have the ability to improve chronic renal failure
mRNA of collagen gene [1]: 2.9
inhibition at 1 µM [2]: ≥ 70%

COC(=O)CNC(=O)c1cccc(C=CC(=O)c2c(O)cc(C)oc2=O)c1 [(33a), 4-hydroxy-3-[3-[3-[[(methoxycarbonylmethyl)amino]carbonyl]phenyl]-1-oxo-2-propenyl]-6-methyl-2H-pyran-2-one]
ability to improve chronic renal failure [1]: have the ability to improve chronic renal failure
mRNA of collagen gene [1]: 3.3
inhibition at 1 µM [2]: ≥ 70%

Cc1cc(O)c(C(=O)C=Cc2cccc(C=CC#N)c2)c(=O)o1 [(1a), 4-hydroxy-3-[3-[3-(2-cyanoethenyl)phenyl]-1-oxo-2-propenyl]-6-methyl-2H-pyran-2-one]
ability to improve chronic renal failure [1]: have the ability to improve chronic renal failure
mRNA of collagen gene [1]: 1.9
inhibition at 1 µM [2]: ≥ 70%

COCC(=O)Nc1cccc(C=CC(=O)c2c(O)cc(C)oc2=O)c1 [(21a), 4-hydroxy-3-[3-[3-(methoxyacetylamino)phenyl]-1-oxo-2-propenyl]-6-methyl-2H-pyran-2-one]
ability to improve chronic renal failure [1]: have the ability to improve chronic renal failure
mRNA of collagen gene [1]: 1.7
inhibition at 1 µM [2]: ≥ 70%

COCC(=O)Nc1cccc(C=CC(=O)c2c(O)c3ccccc3oc2=O)c1 [(21d), 4-hydroxy-3-[3-[3-(methoxyacetylamino)phenyl]-1-oxo-2-propenyl]-2H-1-benzopyran-2-one]
ability to improve chronic renal failure [1]: have the ability to improve chronic renal failure
mRNA of collagen gene [1]: 2.2
inhibition at 1 µM [2]: ≥ 70%

Cc1cc(O)c(C(=O)C=Cc2cccc(OCC#N)c2)c(=O)o1 [(14a), 4-hydroxy-3-[3-[3-(cyanomethoxy)phenyl]-1-oxo-2-propenyl]-6-methyl-2H-pyran-2-one]
ability to improve chronic renal failure [1]: have the ability to improve chronic renal failure
mRNA of collagen gene [1]: 2.2
inhibition at 1 µM [2]: ≥ 70%
